For 21 molecules, IC50 results are on record in patent US20140206681A1, “BTK INHIBITORS” (priority 2013, published 2014).

Test [1] addresses T1, BTK enzyme (recombinant full-length BTK, hBTK) (Homo sapiens, UniProt Q06187).
T1 construct: recombinant protein from baculovirus-transfected Sf9 cells: full-length BTK, 6HIS-tag cleaved; 6HIS (cleaved yes); made in house; host or cells: baculovirus-transfected Sf9 cells
Briefly: BTK enzyme activity assay, LANCE TR-FRET. Type of test: biochemical. The conditions noted are these: 50 pM hBTK, 2 μM biotin-A5-peptide, 25 μM ATP; 60 min compound & enzyme incubation; read-out: IC50 BTK activity value.

Another test deals with HeLa cells. Briefly: [3H]Adenosine uptake functional cellular assay. It counts as cell-based. The settings on record: Homo sapiens, HeLa, accumulation of [3H]adenosine into HeLa cells; compound range 10 μM to […]; read-out: Adenosine uptake inhibition IC50. A digest of the protocol:
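Inhibition of adenosine uptake was measured in HeLa cells (ATCC CCL-2) by following accumulation of tritiated adenosine. Cells were kept overnight at 37° C. with 5% (v/v) CO2, then switched to 40 μL HBSS plus 5% (v/v) FBS. 20 μL of 500 nM [3H]adenosine was added, and uptake was counted on a Topcount NXT reader.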

SMILES strings stand for the structures.

T1 sequence (Q06187 whole entry): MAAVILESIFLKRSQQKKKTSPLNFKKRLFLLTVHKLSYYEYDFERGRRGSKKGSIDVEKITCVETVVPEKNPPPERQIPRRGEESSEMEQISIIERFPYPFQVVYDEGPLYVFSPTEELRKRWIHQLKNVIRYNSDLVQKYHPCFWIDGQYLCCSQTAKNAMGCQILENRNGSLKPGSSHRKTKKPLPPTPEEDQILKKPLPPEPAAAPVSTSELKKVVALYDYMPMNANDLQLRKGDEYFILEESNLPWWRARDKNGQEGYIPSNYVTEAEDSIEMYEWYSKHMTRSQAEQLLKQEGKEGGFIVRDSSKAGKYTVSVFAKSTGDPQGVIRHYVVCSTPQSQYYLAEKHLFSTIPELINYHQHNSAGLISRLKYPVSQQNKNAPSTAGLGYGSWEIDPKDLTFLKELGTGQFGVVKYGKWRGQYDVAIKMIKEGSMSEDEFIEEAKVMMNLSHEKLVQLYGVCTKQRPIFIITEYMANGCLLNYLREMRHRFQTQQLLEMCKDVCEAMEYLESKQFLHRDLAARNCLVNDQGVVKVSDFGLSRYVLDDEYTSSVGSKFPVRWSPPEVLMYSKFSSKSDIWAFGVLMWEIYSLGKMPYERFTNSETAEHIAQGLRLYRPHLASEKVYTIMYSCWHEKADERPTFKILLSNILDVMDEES

For `COc1cc(C(=O)Nc2cc(C(F)(F)F)ccn2)c(F)cc1-c1nc([C@@H]2CC[C@H]3CCC(=O)N3C2)n2ccnc(N)c12` [Example 130, 4-{8-amino-3-[(6R,8aS)-3-oxooctahydroindolizin-6-yl]imidazo[1,5-a]pyrazin-1-yl}-2-fluoro-5-methoxy-N-[4-(trifluoromethyl)pyridin-2-yl]benzamide], the values for the IC50 (in test [1]; with HeLa cells) were 2.5 nM and 728 nM, respectively.
Consider `CCOc1cc(C(=O)Nc2cc(C(F)(F)F)n(C)n2)ccc1-c1nc([C@@H]2CC[C@H]3CCC(=O)N3C2)n2ccnc(N)c12` [Example 131, 4-{8-amino-3-[(6R,8aS)-3-oxooctahydroindolizin-6-yl]imidazo[1,5-a]pyrazin-1-yl}-3-ethoxy-N-[1-methyl-5-(trifluoromethyl)-1H-pyrazol-3-yl]benzamide], for which the 50% inhibitory concentration (IC50) in test [1] was 0.74 nM; in the test with HeLa cells, 2780 nM.
For `COc1cc(C(=O)Nc2cc(C(F)(F)F)ccn2)c(F)cc1-c1nc([C@@H]2CC[C@H]3CCC(=O)N3C2)n2c(Cl)cnc(N)c12` [Example 132, 4-{8-amino-5-chloro-3-[(6R,8aS)-3-oxooctahydroindolizin-6-yl]imidazo[1,5-a]pyrazin-1-yl}-2-fluoro-5-methoxy-N-[4-(trifluoromethyl)pyridin-2-yl]benzamide] the same measures were 1.2 nM and 1490 nM.
For the molecule `COc1cc(C(=O)Nc2cc(C(F)(F)F)ccn2)cc(F)c1-c1nc([C@@H]2CC[C@H]3CCC(=O)N3C2)n2ccnc(N)c12` [Example 134, 4-{8-amino-3-[(6R,8aS)-3-oxooctahydroindolizin-6-yl]imidazo[1,5-a]pyrazin-1-yl}-3-fluoro-5-methoxy-N-[4-(trifluoromethyl)pyridin-2-yl]benzamide], the IC50 in test [1] was found to be 0.28 nM; in the test with HeLa cells, 1600 nM.
Regarding `CCOc1cc(C(=O)Nc2cc(C(F)(F)F)n(C)n2)ccc1-c1nc([C@@H]2CC[C@H]3CCC(=O)N3C2)n2c(Cl)cnc(N)c12` [Example 135, 4-{8-amino-5-chloro-3-[(6R,8aS)-3-oxooctahydroindolizin-6-yl]imidazo[1,5-a]pyrazin-1-yl}-3-ethoxy-N-[1-methyl-5-(trifluoromethyl)-1H-pyrazol-3-yl]benzamide], the IC50 in test [1] was determined as 0.23 nM; in the test with HeLa cells, 2150 nM.
Turning to `CCOc1cc(C(=O)Nc2cc(C3CC3)ccn2)c(F)cc1-c1nc([C@@H]2CC[C@H]3CCC(=O)N3C2)n2c(Cl)cnc(N)c12` [Example 136, 4-{8-amino-5-chloro-3-[(6R,8aS)-3-oxooctahydroindolizin-6-yl]imidazo[1,5-a]pyrazin-1-yl}-N-(4-cyclopropylpyridin-2-yl)-5-ethoxy-2-fluorobenzamide], the values for the 50% inhibitory concentration (IC50) (in test [1]; in the test with HeLa cells) were 0.78 nM and 1430 nM, respectively.
For `CCOc1cc(C(=O)Nc2cc(C3CC3)ccn2)c(F)cc1-c1nc([C@@H]2CC[C@H]3CCC(=O)N3C2)n2ccnc(N)c12` [Example 137, 4-{8-amino-3-[(6R,8aS)-3-oxooctahydroindolizin-6-yl]imidazo[1,5-a]pyrazin-1-yl}-N-(4-cyclopropylpyridin-2-yl)-5-ethoxy-2-fluorobenzamide] the same measures were 2 nM and 1200 nM.
In the case of `Nc1nccn2c([C@@H]3CC[C@H]4CCC(=O)N4C3)nc(-c3ccc(C(=O)Nc4cc(C(F)(F)F)ccn4)cc3OC3CCCCC3)c12` [Example 138, 4-{8-amino-3-[(6R,8aS)-3-oxooctahydroindolizin-6-yl]imidazo[1,5-a]pyrazin-1-yl}-3-(cyclohexyloxy)-N-[4-(trifluoromethyl)pyridin-2-yl]benzamide], the results for the IC50 (in test [1]; with HeLa cells) were 135 nM and 1380 nM, respectively.
The like results for `CC(C)Oc1cc(C(=O)Nc2cc(C(F)(F)F)ccn2)ccc1-c1nc([C@@H]2CC[C@H]3CCC(=O)N3C2)n2ccnc(N)c12` [Example 139, 4-{8-amino-3-[(6R,8aS)-3-oxooctahydroindolizin-6-yl]imidazo[1,5-a]pyrazin-1-yl}-3-(1-methylethoxy)-N-[4-(trifluoromethyl)pyridin-2-yl]benzamide] were, in that order, 5.7 nM and 1280 nM.
Take `Nc1nccn2c([C@@H]3CC[C@H]4CCC(=O)N4C3)nc(-c3ccc(C(=O)Nc4cc(C(F)(F)F)ccn4)cc3OC3CCC3)c12` [Example 140, 4-{8-amino-3-[(6R,8aS)-3-oxooctahydroindolizin-6-yl]imidazo[1,5-a]pyrazin-1-yl}-3-(cyclobutyloxy)-N-[4-(trifluoromethyl)pyridin-2-yl]benzamide]: the concentration for half-maximal inhibition (IC50) in test [1] amounted to 4.6 nM; in the test on HeLa cells it was 756 nM.
As to `Nc1nccn2c([C@@H]3CC[C@H]4CCC(=O)N4C3)nc(-c3ccc(C(=O)Nc4cc(C(F)(F)F)ccn4)cc3OC3CCCC3)c12` [Example 141, 4-{8-amino-3-[(6R,8aS)-3-oxooctahydroindolizin-6-yl]imidazo[1,5-a]pyrazin-1-yl}-3-(cyclopentyloxy)-N-[4-(trifluoromethyl)pyridin-2-yl]benzamide], the results for the IC50 (in test [1]; in the test with HeLa cells) were 23.7 nM and 824 nM, respectively.
The like results for `CC(C)(C)COc1cc(C(=O)Nc2cc(C(F)(F)F)ccn2)ccc1-c1nc([C@@H]2CC[C@H]3CCC(=O)N3C2)n2ccnc(N)c12` [Example 142, 4-{8-amino-3-[(6R,8aS)-3-oxooctahydroindolizin-6-yl]imidazo[1,5-a]pyrazin-1-yl}-3-(2,2-dimethylpropoxy)-N-[4-(trifluoromethyl)pyridin-2-yl]benzamide] were, in that order, 17.5 nM and 1190 nM.
For `Cn1nc(NC(=O)c2ccc(-c3nc([C@@H]4CC[C@H]5CCC(=O)N5C4)n4c(Cl)cnc(N)c34)c(OC3CC3)c2)cc1C(F)(F)F` [Example 145, 4-{8-amino-5-chloro-3-[(6R,8aS)-3-oxooctahydroindolizin-6-yl]imidazo[1,5-a]pyrazin-1-yl}-3-(cyclopropyloxy)-N-[1-methyl-5-(trifluoromethyl)-1H-pyrazol-3-yl]benzamide], the IC50 in test [1] was 0.44 nM; in the test on HeLa cells, 2420 nM.
On to `Cn1nc(NC(=O)c2ccc(-c3nc([C@@H]4CC[C@H]5CCC(=O)N5C4)n4ccnc(N)c34)c(OC3CC3)c2)cc1C(F)(F)F` [Example 146, 4-{8-amino-3-[(6R,8aS)-3-oxooctahydroindolizin-6-yl]imidazo[1,5-a]pyrazin-1-yl}-3-(cyclopropyloxy)-N-[1-methyl-5-(trifluoromethyl)-1H-pyrazol-3-yl]benzamide], for which the 50% inhibitory concentration (IC50) in test [1] was determined as 0.59 nM; in the test on HeLa cells, 5000 nM.
For `Nc1ncc(Cl)n2c([C@@H]3CC[C@H]4CCC(=O)N4C3)nc(-c3ccc(C(=O)Nc4cc(C5CC5)ccn4)cc3OC3CC3)c12` [Example 147, 4-{8-amino-5-chloro-3-[(6R,8aS)-3-oxooctahydroindolizin-6-yl]imidazo[1,5-a]pyrazin-1-yl}-3-(cyclopropyloxy)-N-(4-cyclopropylpyridin-2-yl)benzamide], the IC50 stood at 0.75 nM in test [1] and 959 nM in the test with HeLa cells.
Consider `Nc1nccn2c([C@@H]3CC[C@H]4CCC(=O)N4C3)nc(-c3ccc(C(=O)Nc4cc(C5CC5)ccn4)cc3OC3CC3)c12` [Example 148, 4-{8-amino-3-[(6R,8aS)-3-oxooctahydroindolizin-6-yl]imidazo[1,5-a]pyrazin-1-yl}-3-(cyclopropyloxy)-N-(4-cyclopropylpyridin-2-yl)benzamide], for which the IC50 is 1.4 nM in test [1] and 1080 nM with HeLa cells.
In the case of `Cn1nc(NC(=O)c2ccc(-c3nc([C@@H]4CC[C@H]5CCC(=O)N5C4)n4ccnc(N)c34)c(OC3CNC3)c2)cc1C(F)(F)F` [Example 149, 4-{8-amino-3-[(6R,8aS)-3-oxooctahydroindolizin-6-yl]imidazo[1,5-a]pyrazin-1-yl}-3-(azetidin-3-yloxy)-N-[1-methyl-5-(trifluoromethyl)-1H-pyrazol-3-yl]benzamide], the IC50 is 96.7 nM in test [1] and at least 10000 nM with HeLa cells.
For `Cn1nc(NC(=O)c2cc(OC3CC3)c(-c3nc([C@@H]4CC[C@H]5CCC(=O)N5C4)n4c(Cl)cnc(N)c34)cc2F)cc1C(F)(F)F` [Example 150, 4-{8-amino-5-chloro-3-[(6R,8aS)-3-oxooctahydroindolizin-6-yl]imidazo[1,5-a]pyrazin-1-yl}-5-(cyclopropyloxy)-2-fluoro-N-[1-methyl-5-(trifluoromethyl)-1H-pyrazol-3-yl]benzamide] the same measures were 1.8 nM and 2300 nM.
As for `CCOc1cc(C(=O)Nc2cc(C(F)(F)F)ccn2)c(F)cc1-c1nc([C@@H]2CC[C@H]3CCC(=O)N3C2)n2ccnc(N)c12` [Example 151, 4-{8-amino-3-[(6R,8aS)-3-oxooctahydroindolizin-6-yl]imidazo[1,5-a]pyrazin-1-yl}-5-ethoxy-2-fluoro-N-[4-(trifluoromethyl)pyridin-2-yl]benzamide], the half-maximal inhibitory concentration (IC50) in test [1] is 0.75 nM; in the test with HeLa cells it was 1120 nM.
Consider `CCOc1cc(C(=O)Nc2cc(C(F)(F)F)n(C)n2)c(F)cc1-c1nc([C@@H]2CC[C@H]3CCC(=O)N3C2)n2ccnc(N)c12` [Example 152, 4-{8-amino-3-[(6R,8aS)-3-oxooctahydroindolizin-6-yl]imidazo[1,5-a]pyrazin-1-yl}-5-ethoxy-2-fluoro-N-[1-methyl-5-(trifluoromethyl)-1H-pyrazol-3-yl]benzamide], for which the half-maximal inhibitory concentration (IC50) was 1.3 nM in test [1] and 1890 nM in the test on HeLa cells.
Turning to `Nc1ncc(Cl)n2c([C@@H]3CC[C@H]4CCC(=O)N4C3)nc(-c3ccc(C(=O)Nc4cc(C(F)(F)F)ccn4)cc3)c12` [Example 153, 4-{8-amino-5-chloro-3-[(6R,8aS)-3-oxooctahydroindolizin-6-yl]imidazo[1,5-a]pyrazin-1-yl}-N-[4-(trifluoromethyl)pyridin-2-yl]benzamide], the IC50 in test [1] was 0.16 nM; with HeLa cells, 501 nM.

A word on the IC50: it is the concentration at which inhibition is half-maximal.
